The values below come from patent US11884649B2, “IRE1α inhibitors and uses thereof” (The Regents of the University of California, priority 2020, dated 2024).

The target of one assay is T1, IRE1α* (Homo sapiens, UniProt O75460).
T1 construct: human IRE1α (residues 547-977, IRE1α*) was expressed in SF9 insect cells; His6 (N); made in house; host or cells: Sf9 insect cells (Bac-to-Bac baculovirus)
The assay can be described thus: In vitro kinase activity assay (IRE1α kinase inhibition). As to conditions: for Ki: read-out: Inhibition of IRE1α*'s kinase activity, Ki; for IC50: IRE1α kinase inhibition, read-out: IC50 IRE1a. Format: biochemical. The method, then: A construct containing the cytosolic kinase and RNase domains of human IRE1α (residues 547-977, IRE1α*) was expressed in SF9 insect cells by using the Bac-to-Bac baculovirus expression system (Invitrogen) with a His6 tag at the N-terminus and purified with a nickel-nitriloacetic acid (Qiagen) column. To generate dP-IRE1α*, we removed basal phosphorylation sites by incubating IRE1α* with λ-PPase (New England Biolabs) at a molar ratio of 5:1 (IRE1α*: λ-PPase) in 50 mM HEPES pH 7.5, 100 mM NaCl, 1 mM MnCl2, 2 mM dithiothreitol (DTT) and 0.01% Brij 35 detergent (v/v) overnight at 4° C. Dephosphorylation was verified through western blotting using a universal phospho-protein detection agent (biotin-pIMAGO (Tymora Analytical Operations, Cat. No.: FL800) and imaged using a streptavidin-linked fluorophore.
In Vitro Kinase Activity Assay
Inhibitors (initial concentration of 10 or 60 μM, three-fold serial dilutions) were incubated with IRE1α* in cleavage buffer (20 mM HEPES, 0.05% Triton X-100 (v/v), 50 mM KCl, 1 mM MgCl2, 1 mM DTT, pH 7.5) for 30 min, followed by incubation with 10 μCi [γ^32P] ATP (3,000 Ci mmol^−1, PerkinElmer) at 23° C. for 3 hours. Samples were then spotted onto glass fiber paper (Easytab-C Glass Fiber Filter Paper, Perkin Elmer) and washed in twice with 0.5% phosphoric acid and autoradiographed using a GE Typhoon FLA 9000 Imager. Blots were quantitated using ImageQuant software. The percent inhibition was quantified by setting the background (no kinase well) as 0 and standardizing to IRE1α* without compound treatment (IRE1α*+DMSO). Dose-response curves were fit using “one-site fit log IC50” parameter using GraphPad Prism analysis software.
Compound Characterization (IC50 IRE1α Kinase Inhibition)

The next assay deals with XBP1 mRNA splicing. The assay can be described thus: XBP1 mRNA splicing in INS-1 cells conditionally overexpressing IRE1α (Dox). Format: cell-based, rat. The settings on record: 3, 10 μM for 1 hour, then Dox (1 μg/mL) for 4 hours. The method, then: (§1) RNA Isolation, Quantitative Real-Time PCR, and Primers
(§2) INS-1 or isogenic IRE1α-overexpressing INS-1 cells were plated onto Poly-D-Lysine coated tissue culture plate and grown for 48 hrs. Inhibitors or DMSO were added to the media and incubated for 1 hour at 37° C. with 5% CO2 prior to addition of ER stress agents or Dox as indicated. RNA was isolated from whole cells using either QIAGEN RNeasy Mini kits or Trizol (Invitrogen) and reverse transcribed as above to obtain total cDNA. Then, XBP-1 primers were used to amplify an XBP-1 amplicon spanning the 26 nt intron from the cDNA samples in a regular 3-step PCR. Thermal cycles were: 5 min at 95° C., 30 cycles of 30 s at 95° C., 30 s at 60° C., and 1 min at 72° C., followed by 72° C. for 15 min, and hold at 4° C. Primers used for XBP-1 mRNA splicing were as follows: sense primer XBP1.3 S (5′ […]-3′ (SEQ ID NO:2)) and antisense primer XBP1.2AS (5′-[…]-3′ (SEQ ID NO:3)). PCR fragments were then digested by PstI, resolved on 3% agarose gels, stained with EtBr and quantified by densitometry using ImageJ (NIH). For standard mRNA detection, generally […] total RNA was reverse transcribed using the QuantiTect Reverse Transcription Kit (QIAGEN). For qPCR, we used SYBR green (QIAGEN) and StepOnePlus Real-Time PCR System (Applied Biosystems). Thermal cycles were: 5 min at 95° C., 40 cycles of 15 sec at 95° C., 30 sec at 60° C. Gene expression levels were normalized to Beta Actin. Primers used for qPCR of RIDD targets were as follows: Beta Actin Fwd: 5′-[…]-3′ (SEQ ID NO:4), Beta Actin Rev: 5′-[…]-3′ (SEQ ID NO:5), Insulin 1 Fwd: 5′-GTCCTCTGGGAGCCCAAG-3′ (SEQ ID NO:6), Insulin 1 Rev: 5′-ACAGAGCCTCCACCAGG-3′ (SEQ ID NO:7), Insulin 2 Fwd: 5′-ATCCTCTGGGAGCCCCGC-3′ (SEQ ID NO:8), Insulin 2 Rev: 5′-AGAGAGCTTCCACCAAG-3′ (SEQ ID NO:9), Blos1 Fwd: 5′-[…]-3′ (SEQ ID NO:10), and Blos1 Rev: 5′-[…]-3′ (SEQ ID NO:11).
RNA was extracted using Trizol (Invitrogen), DNaseI treated, and cDNA products encompassing the intron amplified by QuantiTect Reverse Transcription Kit (Qiagen). sense Primer rXBP Forward (5′-[…]-3′ (SEQ ID NO:12)) and antisense primer rXBP Reverse (5′-[…]-3′ (SEQ ID NO:13)) were used. PCR fragments were digested by PstI, resolved on 3% agarose gels, stained with EtBr, and quantified by densitometry.
XBP1 splicing for FIGS. 33A-33F: RNA was extracted using Trizol (Invitrogen), cDNA products encompassing the intron amplified by QuantiTect Reverse Transcription Kit (Qiagen). Sense Primer rXBP splicing Forward (5′-[…]-3′ (SEQ ID NO:12)) and antisense primer rXBP splicing Reverse (5′-[…]-3′ (SEQ ID NO:13)) were used. PCR fragments were digested by PstI, resolved on 3% agarose gels, stained with EtBr, and quantified by densitometry.

Assay [1] deals with RIDD (IRE1α-dependent mRNA decay). The assay can be described thus: Real-time PCR of RIDD mRNA targets in INS-1 cells overexpressing IRE1α (Dox). The class given is cell-based, rat. The settings on record: 3, 10 μM for 1 hour, then Dox (5 ng/mL) for 24 hours. As for the experimental part: as §1, §2
Real-Time PCR (Q-PCR) used SYBR green and Step OnePlus Real-Time PCR System (Applied Biosystems). Thermal cycles were: 5 min at 95° C., 40 cycles of 15 s at 95° C., 30 s at 60° C. Gene expression levels were normalized to GAPDH. Q-PCR Sense/antisense primers used: Rat GAPDH, 5′-[…]-3′ (SEQ ID NO:14) and 5′-[…]-3′ (SEQ ID NO:15); Rat Ins1, 5′-GTCCTCTGGGAGCCCAAG-3′ (SEQ ID NO:6) and 5′-ACAGAGCCTCCACCAGG-3′ (SEQ ID NO:7); Rat Pdia4, 5′-CGTCTCGCCCTGATTCGT-3′ (SEQ ID NO:16) and 5′-[…]-3′ (SEQ ID NO:17); Rat Blos1, 5′-[…]-3′ (SEQ ID NO:18) and 5′-TGTCCAGTTCGATGCTCCG-3′ (SEQ ID NO:19).
Real-time PCR for FIGS. 34A-34F: Real-Time PCR (Q-PCR) used SYBR green and Step OnePlus Real-Time PCR System (Applied Biosystems). Thermal cycles were: 5 min at 95° C., 40 cycles of 15 s at 95° C., 30 s at 60° C. Gene expression levels were normalized to GAPDH. Q-PCR Sense/antisense primers used: Rat GAPDH, 5′-[…]-3′ (SEQ ID NO:20) and 5′-[…]-3′ (SEQ ID NO:21); Rat Ins1, 5′-GTCCTCTGGGAGCCCAAG-3′ (SEQ ID NO:6) and 5′-ACAGAGCCTCCACCAGG-3′ (SEQ ID NO:7); Rat Ins2, 5′-ATCCTCTGGGAGCCCCGC-3′ (SEQ ID NO:8) and 5′-AGAGAGCTTCCACCAAG-3′ (SEQ ID NO:9); Rat Pdia4, 5′-[…]-3′(SEQ ID NO:22) and 5′-[…]-3′ (SEQ ID NO:23); Rat Blos1, 5′-[…]-3′ (SEQ ID NO:18) and 5′-TGTCCAGTTCGATGCTCCG-3′ (SEQ ID NO:19).
For orientation: Real-time PCR tracks product formation cycle by cycle.

T1 sequence (O75460 547-977): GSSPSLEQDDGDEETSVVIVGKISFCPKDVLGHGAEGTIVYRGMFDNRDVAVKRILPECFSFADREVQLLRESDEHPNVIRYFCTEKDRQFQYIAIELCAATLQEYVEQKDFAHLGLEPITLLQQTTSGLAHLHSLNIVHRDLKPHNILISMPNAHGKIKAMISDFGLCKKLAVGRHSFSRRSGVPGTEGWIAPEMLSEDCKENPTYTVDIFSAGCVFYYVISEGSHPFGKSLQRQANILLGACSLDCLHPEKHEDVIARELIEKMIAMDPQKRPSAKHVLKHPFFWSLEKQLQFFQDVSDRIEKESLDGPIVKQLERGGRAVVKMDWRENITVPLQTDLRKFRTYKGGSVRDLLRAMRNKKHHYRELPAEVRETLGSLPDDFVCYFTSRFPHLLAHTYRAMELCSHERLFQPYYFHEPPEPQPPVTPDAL

The term Ki denotes a dissociation constant, usually derived from enzyme kinetics or from competition with a known ligand. As to `N[C@H]1CC[C@H](Nc2nccc(-c3cccnc3Oc3ccc(NS(=O)(=O)C4CC4)c4ccccc34)n2)CC1` [compound 5, N-(4-(3-(2-((1r,4r)-4-aminocyclohexylamino)pyrimidin-4-yl)pyridin-2-yloxy)naphthalen-1-yl)cyclopropanesulfonamide], on IRE1α*, the Ki is 140 nM.

Consider `Nc1ccc(Oc2ncccc2-c2ccnc(N[C@H]3CC[C@H](N)CC3)n2)cc1F` [compound 1, (1r,4r)-N1-(4-(2-(4-amino-3-fluorophenoxy)pyridin-3-yl)pyrimidin-2-yl) cyclohexane-1,4-diamine], for which, at IRE1α*, the Ki turned out to be 480 nM.

One may read the IC50 as the midpoint of a concentration-inhibition curve. On to `Cc1c(F)c(NS(C)(=O)=O)c2ccccc2c1Oc1ncccc1-c1ccnc(N[C@H]2CCCNC2)n1` [LBC-0000401, (S)—N-(2-fluoro-3-methyl-4-((3-(2-(piperidin-3-ylamino)pyrimidin-4-yl)pyridin-2-yl)oxy)naphthalen-1-yl) methane sulfonamide], for which the IC50 at IRE1α* was 16 nM.

`Cc1cc(NS(=O)(=O)CCC(F)(F)F)c2ccccc2c1Oc1ncccc1-c1ccnc(N[C@@H]2CNC[C@@H](F)C2)n1` [LBC-410, 3,3,3-trifluoro-N-(4-((3-(2-(((3S,5S)-5-fluoropiperidin-3-yl)amino)pyrimidin-4-yl)pyridin-2-yl)oxy)-3-methylnaphthalen-1-yl)propane-1-sulfonamide]: at IRE1α*, the IC50 amounted to 3.4 nM. In addition, in the assay on XBP1 mRNA splicing, the “% spliced XBP1 amplicons” value was “suppresses XBP1 splicing”. In assay [1], the “RIDD mRNA targets (Ins1, Ins2, Pdia4)” value is listed as “block RIDD”.

`O=S(=O)(CC(F)(F)F)Nc1ccc(Oc2ncccc2-c2ccnc(N[C@@H]3CNC[C@@H](F)C3)n2)c2ccccc12` [LBC-0000398, 2,2,2-trifluoro-N-(4-((3-(2-(((3S,5S)-5-fluoropiperidin-3-yl)amino)pyrimidin-4-yl)pyridin-2-yl)oxy)naphthalen-1-yl) ethane-1-sulfonamide]: the IC50 on IRE1α* worked out at 7.2 nM.

Regarding `Cc1cc(NS(=O)(=O)C2(C)CC2)c2ccccc2c1Oc1ncccc1-c1ccnc(N[C@@H]2CNC[C@@H](F)C2)n1` [LBC-413, N-(4-((3-(2-(((3S,5S)-5-fluoropiperidin-3-yl)amino)pyrimidin-4-yl)pyridin-2-yl)oxy)-3-methylnaphthalen-1-yl)-1-methylcyclopropane-1-sulfonamide], the IC50 on IRE1α* was 32 nM. In the assay on XBP1 mRNA splicing, the “% spliced XBP1 amplicons” value is given as “do not suppress XBP mRNA splicing”. In addition, the “RIDD mRNA targets (Ins1, Ins2, Pdia4)” value in assay [1] was “block RIDD”.

As for `Cc1c(F)c(NS(=O)(=O)CC(F)(F)F)c2ccccc2c1Oc1ncccc1-c1ccnc(N[C@H]2CCCNC2)n1` [LBC-0000390, (S)-2,2,2-trifluoro-N-(2-fluoro-3-methyl-4-((3-(2-(piperidin-3-ylamino)pyrimidin-4-yl)pyridin-2-yl)oxy)naphthalen-1-yl) ethane-1-sulfonamide], on IRE1α*, the IC50 came out at 9.5 nM.

As for `Cc1cc(NS(=O)(=O)CC(F)(F)F)c2ccccc2c1Oc1ncccc1-c1ccnc(N[C@H]2CCCNC2)n1` [LBC-0000389, (S)-2,2,2-trifluoro-N-(3-methyl-4-((3-(2-(piperidin-3-ylamino)pyrimidin-4-yl)pyridin-2-yl)oxy)naphthalen-1-yl) ethane sulfonamide], the half-inhibitory concentration (IC50) on IRE1α* was found to be 8 nM.

Take `Cc1c(F)c(NS(=O)(=O)CC(F)(F)F)c2ccccc2c1Oc1ncccc1-c1ccnc(N[C@@H]2CNC[C@@H](F)C2)n1` [LBC-0000399, 2,2,2-trifluoro-N-(2-fluoro-4-((3-(2-(((3S,5S)-5-fluoropiperidin-3-yl)amino)pyrimidin-4-yl)pyridin-2-yl)oxy)-3-methylnaphthalen-1-yl) ethane-1-sulfonamide]: the IC50 on IRE1α* turned out to be 5.1 nM.

With `N[C@H]1CC[C@H](Nc2nccc(-c3cccnc3Oc3cccc4c(NS(=O)(=O)C5CCC5)cccc34)n2)CC1` [compound 6, N-(5-(3-(2-((1r,4r)-4-aminocyclohexylamino)pyrimidin-4-yl)pyridin-2-yloxy)naphthalen-1-yl) cyclobutanesulfonamide], the Ki at IRE1α* amounted to 98 nM.

As for `Cc1cc(NS(=O)(=O)CC2CC2)c2ccccc2c1Oc1ncccc1-c1ccnc(N[C@@H]2CNC[C@@H](F)C2)n1` [LBC-409, 1-cyclopropyl-N-(4-((3-(2-(((3S,5S)-5-fluoropiperidin-3-yl)amino)pyrimidin-4-yl)pyridin-2-yl)oxy)-3-methylnaphthalen-1-yl)methanesulfonamide], on IRE1α*, the IC50 is 7.4 nM. Besides, the “% spliced XBP1 amplicons” value in the assay with XBP1 mRNA splicing was “do not suppress XBP mRNA splicing”. Further, the “RIDD mRNA targets (Ins1, Ins2, Pdia4)” value in assay [1] is recorded as “block RIDD”.
